Results taken from publication PMC12150326 (The Journal of Organic Chemistry, 2025).
Like-named read-outs stand apart in the source and are kept apart here.

Legend:
[1] = tested on: PC3; experiment: Cell-growth inhibition (CellTiter); format: cell-based, human; settings: read-out: Cell Growth Inhibition GI50 ± SE
Description: (§1) Inhibition of cell growth was determined by using standard procedures. Cell lines were obtained from the NCI anticancer drug screen and maintained in DMEM medium supplemented with 10% fetal bovine serum. Growing cells were exposed to serial dilutions of each compound for 3 days. Cell growth was determined with CellTiter Assay Reagent (Promega), and growth parameters, including inhibition of growth, were measured by using the methods specified by the manufacturer.

[2] = tested on: A549; experiment: Cell-growth inhibition (CellTiter); format: cell-based, human; settings: read-out: Cell Growth Inhibition GI50 ± SE
Description: as §1

[3] = tested on: M14; experiment: Cell-growth inhibition (CellTiter); format: cell-based, human; settings: read-out: Cell Growth Inhibition GI50 ± SE
Description: as §1

[4] = tested on: SF-295; format: cell-based, human
Description: (§2) (aR)-6, (aS)-6, (aS)-iso -6, and (aR)-iso -6 were submitted to the 60 Cell Screen panel and evaluated at 5 doses (100 μM, 10 μM, 1 μM, 0.1 μM, and 0.01 μM). […] The complete report from this submission is available at the publisher’s Web site as a separate Supporting Information file. For COMPARE analysis, TGI levels of response for (aR)-DM-MTC (6) and (aS)-iso-DM-MTC were compared to those of several established tubulin inhibitors previously tested in the NCI-60 screen.

[5] = tested on: IGROV1; format: cell-based, human
Description: as §2

[6] = tested on: BT-549; format: cell-based, human
Description: as §2

[7] = tested on: UO-31; format: cell-based, human
Description: as §2

[8] = tested on: A549/ATCC; format: cell-based, human
Description: as §2

[9] = tested on: NCI-H522; format: cell-based, human
Description: as §2

[10] = tested on: SR; format: cell-based, human
Description: as §2

[11] = tested on: SK-OV-3; format: cell-based, human
Description: as §2

[12] = tested on: HOP-62; format: cell-based, human
Description: as §2

[13] = tested on: EKVX; format: cell-based, human
Description: as §2

[14] = tested on: K-562; format: cell-based, human
Description: as §2

[15] = tested on: MOLT-4; format: cell-based, human
Description: as §2

[16] = tested on: HS 578T; format: cell-based, human
Description: as §2

[17] = tested on: UACC-62; format: cell-based, human
Description: as §2

[18] = tested on: CCRF-CEM; format: cell-based, human
Description: as §2

[19] = tested on: HCT-15; format: cell-based, human
Description: as §2

[20] = tested on: TK-10; format: cell-based, human
Description: as §2

[21] = tested on: A498; format: cell-based, human
Description: as §2

[22] = tested on: M14; format: cell-based, human
Description: as §2

[23] = tested on: SK-MEL-28; format: cell-based, human
Description: as §2

[24] = tested on: colchicine site of bovine brain tubulin; format: binding; settings: for Kd: tubulin binding constant, 25 °C
Description: Inhibition of this fluorescence increase was measured and converted to K d for the test compound as described.

[25] = tested on: bovine brain tubulin; experiment: Tubulin polymerization inhibition; format: biochemical; settings: 10 μM tubulin; for Polymerization Inhibition (%) 3.3 μM: 3.3 μM compound; for Polymerization Inhibition (%) 33 μM: 33 μM compound
Description: Inhibition of tubulin polymerization was determined as described previously. In brief, 10 μM bovine brain tubulin (PurSolutions, LLC (puresoluble.com)) was incubated under conditions strongly promoting polymerization of tubulin (1 M NaGlutamate, 0.1 M Mes (Morpholinoethanesulfonic acid), 1 mM MgCl2, 0.5 mM GTP, pH 6.9), in the absence or presence of 3.3 or 33 μM test compound, incubated for 30 min at 37 °C, then centrifuged at 100,000g for 8 min, and the top 3/4 of the supernatant removed. Protein concentration was measured, and polymerization was determined as pelletable protein lost from the supernatant.

## COc1cc(C)c(-c2ccc(OC)c(=O)cc2C)c(OC)c1OC (single isomer, unassigned) [(aR)-6]
[1]; PC3, 3 days
  GI50: 1500 ± 100 nM
[2]; A549, 3 days
  GI50: 2100 ± 100 nM
[3]; M14, 3 days
  GI50: 1100 ± 200 nM
[4]
  Log10GI50: -5.76 Molar
  Log10LC50: > -4.00 Molar
  Log10TGI: > -4.00 Molar
[4]; Homo sapiens
  GI50: 1740 nM
[4]; listed as (aR)-DM-MTC
  Log10GI50: -5.76 Molar
[5]
  Log10GI50: -5.37 Molar
  Log10LC50: > -4.00 Molar
  Log10TGI: > -4.00 Molar
[5]; Homo sapiens, IGROV-1
  GI50: 4.27 µM
[5]; listed as (aR)-DM-MTC
  Log10GI50: -5.37 Molar
[6]
  Log10GI50: -5.69 Molar
  Log10LC50: > -4.00 Molar
  Log10TGI: -5.18 Molar
[6]; Homo sapiens
  GI50: 2040 nM
[6]; listed as (aR)-DM-MTC
  Log10GI50: -5.69 Molar
[7]
  Log10GI50: -5.16 Molar
  Log10LC50: > -4.00 Molar
  Log10TGI: > -4.00 Molar
[7]; Homo sapiens
  GI50: 6.92 µM
[7]; listed as (aR)-DM-MTC
  Log10GI50: -5.16 Molar
[8]
  Log10GI50: -5.42 Molar
  Log10LC50: > -4.00 Molar
  Log10TGI: > -4.00 Molar
[8]; Homo sapiens
  GI50: 3.8 µM
[8]; listed as (aR)-DM-MTC
  Log10GI50: -5.42 Molar
[9]
  Log10GI50: -5.73 Molar
  Log10LC50: > -4.00 Molar
  Log10TGI: -5.27 Molar
[9]; Homo sapiens
  GI50: 1860 nM
[9]; listed as (aR)-DM-MTC
  Log10GI50: -5.73 Molar
[10]
  Log10GI50: -6.44 Molar
  Log10LC50: > -4.00 Molar
  Log10TGI: > -4.00 Molar
[10]; Homo sapiens
  GI50: 360 nM
[10]; listed as (aR)-DM-MTC
  Log10GI50: -6.44 Molar
[11]
  Log10GI50: -5.59 Molar
  Log10LC50: > -4.00 Molar
  Log10TGI: > -4.00 Molar
[11]; Homo sapiens
  GI50: 2570 nM
[11]; listed as (aR)-DM-MTC
  Log10GI50: -5.59 Molar
[12]
  Log10GI50: -5.42 Molar
  Log10LC50: > -4.00 Molar
  Log10TGI: > -4.00 Molar
[12]; Homo sapiens
  GI50: 3.8 µM
[12]; listed as (aR)-DM-MTC
  Log10GI50: -5.42 Molar
[13]
  Log10GI50: -5.18 Molar
  Log10LC50: > -4.00 Molar
  Log10TGI: > -4.00 Molar
[13]; Homo sapiens
  GI50: 6.61 µM
[13]; listed as (aR)-DM-MTC
  Log10GI50: -5.18 Molar
[14]
  Log10GI50: -6.31 Molar
  Log10LC50: > -4.00 Molar
  Log10TGI: > -4.00 Molar
[14]; Homo sapiens, K562
  GI50: 490 nM
[14]; listed as (aR)-DM-MTC
  Log10GI50: -6.31 Molar
[15]
  Log10GI50: -5.58 Molar
  Log10LC50: > -4.00 Molar
  Log10TGI: > -4.00 Molar
[15]; Homo sapiens
  GI50: 2630 nM
[15]; listed as (aR)-DM-MTC
  Log10GI50: -5.58 Molar
[16]
  Log10GI50: -5.81 Molar
  Log10LC50: > -4.00 Molar
[16]; Homo sapiens
  GI50: 1550 nM
[16]; listed as (aR)-DM-MTC
  Log10GI50: -5.81 Molar
[17]
  Log10GI50: -6.03 Molar
  Log10LC50: > -4.00 Molar
  Log10TGI: > -4.00 Molar
[17]; Homo sapiens
  GI50: 930 nM
[17]; listed as (aR)-DM-MTC
  Log10GI50: -6.03 Molar
[18]
  Log10GI50: -5.71 Molar
  Log10LC50: > -4.00 Molar
  Log10TGI: > -4.00 Molar
[18]; Homo sapiens
  GI50: 1950 nM
[18]; listed as (aR)-DM-MTC
  Log10GI50: -5.71 Molar
[19]
  Log10GI50: -6.17 Molar
  Log10LC50: > -4.00 Molar
  Log10TGI: > -4.00 Molar
[19]; Homo sapiens
  GI50: 680 nM
[19]; listed as (aR)-DM-MTC
  Log10GI50: -6.17 Molar
[20]
  Log10GI50: -4.18 Molar
  Log10LC50: > -4.00 Molar
  Log10TGI: > -4.00 Molar
[20]; Homo sapiens
  GI50: 66.1 µM
[20]; listed as (aR)-DM-MTC
  Log10GI50: -4.18 Molar
[21]
  Log10GI50: -6.10 Molar
  Log10LC50: > -4.00 Molar
  Log10TGI: -5.34 Molar
[21]; Homo sapiens
  GI50: 790 nM
[21]; listed as (aR)-DM-MTC
  Log10GI50: -6.1 Molar
[22]
  Log10GI50: -6.07 Molar
  Log10LC50: > -4.00 Molar
  Log10TGI: > -4.00 Molar
[22]; Homo sapiens
  GI50: 850 nM
[22]; listed as (aR)-DM-MTC
  Log10GI50: -6.07 Molar
[23]
  Log10LC50: > -4.00 Molar
  Log10TGI: > -4.00 Molar
[24]
  binding constant fold less potent than 3: 5–30 fold
[24]; read-out: Kd
  Kd: 95 µM
[25]
  Polymerization Inhibition (%) 3.3 μM: 0%
  Polymerization Inhibition (%) 33 μM: 100%

## COc1cc(C)c(-c2ccc(=O)c(OC)cc2C)c(OC)c1OC (single isomer, unassigned) [(aR)-iso-6]
[1]; PC3, 3 days
  GI50: > 20000 nM
[2]; A549, 3 days
  GI50: > 20000 nM
[3]; M14, 3 days
  GI50: > 20000 nM
[4]
  Log10GI50: > -4.00 Molar
  Log10LC50: > -4.00 Molar
  Log10TGI: > -4.00 Molar
[5]
  Log10GI50: > -4.00 Molar
  Log10LC50: > -4.00 Molar
  Log10TGI: > -4.00 Molar
[6]
  Log10GI50: > -4.00 Molar
  Log10LC50: > -4.00 Molar
  Log10TGI: > -4.00 Molar
[7]
  Log10GI50: > -4.00 Molar
  Log10LC50: > -4.00 Molar
  Log10TGI: > -4.00 Molar
[8]
  Log10GI50: > -4.00 Molar
  Log10LC50: > -4.00 Molar
  Log10TGI: > -4.00 Molar
[9]
  Log10GI50: > -4.00 Molar
  Log10LC50: > -4.00 Molar
  Log10TGI: > -4.00 Molar
[10]
  Log10GI50: > -4.00 Molar
  Log10LC50: > -4.00 Molar
  Log10TGI: > -4.00 Molar
[11]
  Log10GI50: > -4.00 Molar
  Log10LC50: > -4.00 Molar
  Log10TGI: > -4.00 Molar
[12]
  Log10GI50: > -4.00 Molar
  Log10LC50: > -4.00 Molar
  Log10TGI: > -4.00 Molar
[13]
  Log10GI50: > -4.00 Molar
  Log10LC50: > -4.00 Molar
  Log10TGI: > -4.00 Molar
[14]
  Log10GI50: > -4.00 Molar
  Log10LC50: > -4.00 Molar
  Log10TGI: > -4.00 Molar
[15]
  Log10GI50: > -4.00 Molar
  Log10LC50: > -4.00 Molar
  Log10TGI: > -4.00 Molar
[16]
  Log10GI50: > -4.00 Molar
  Log10LC50: > -4.00 Molar
  Log10TGI: > -4.00 Molar
[17]
  Log10GI50: > -4.00 Molar
  Log10LC50: > -4.00 Molar
  Log10TGI: > -4.00 Molar
[18]
  Log10GI50: > -4.00 Molar
  Log10LC50: > -4.00 Molar
  Log10TGI: > -4.00 Molar
[19]
  Log10GI50: > -4.00 Molar
  Log10LC50: > -4.00 Molar
  Log10TGI: > -4.00 Molar
[20]
  Log10GI50: > -4.00 Molar
  Log10LC50: > -4.00 Molar
  Log10TGI: > -4.00 Molar
[21]
  Log10GI50: > -4.00 Molar
  Log10LC50: > -4.00 Molar
  Log10TGI: > -4.00 Molar
[22]
  Log10GI50: > -4.00 Molar
  Log10LC50: > -4.00 Molar
  Log10TGI: > -4.00 Molar
[23]
  Log10GI50: > -4.00 Molar
  Log10LC50: > -4.00 Molar
  Log10TGI: > -4.00 Molar
[24]
  Kd: nb
[25]
  Polymerization Inhibition (%) 3.3 μM: 0%
  Polymerization Inhibition (%) 33 μM: 0%

## COc1cc2c(c(OC)c1OC)-c1ccc(OC)c(=O)cc1[C@@H](NC(C)=O)CC2 [Colchicine, (−)-Colchicine]
[1]; Homo sapiens, PC-3, 72 h
  GI50: 20 ± 5 nM
[2]; Homo sapiens, A549, 72 h
  GI50: 40 nM
[3]; Homo sapiens, M14, 72 h
  GI50: 10 ± 1 nM
